{"source": "patent US20240148671A1", "about": "“METHODS FOR IMPROVING POULTRY HEALTH” (CORNELL UNIVERSITY, priority 2021, published 2024)", "type_in_all_cases": "in vivo, Gallus gallus", "key": {"[1]": {"test_system": "hemoglobin (Hb)", "assay": "Blood hemoglobin (Hb) after intra-amniotic administration", "description": "(§1) The pure resveratrol and pterostilbene were individually diluted in 18 MΩ H2O. The intra-amniotic administration followed the methodology previously described. On the 17th day of embryonic development, the eggs with viable embryos (n=60) were randomly allocated into 6 groups (n=10) with a similar weight frequency distribution. For the intra-amniotic treatment, 1 mL of solution per egg was injected into the amniotic fluid (via candling) with the aid of a 21-gauge needle. After the procedure, the injection sites were sealed with cellophane tape, and the eggs were distributed into six groups: (1) no injection; (2) 18 MΩ H2O; (3) 5% inulin; (4) 5% resveratrol; (5) 5% pterostilbene; and (6) synergistic: 4.75% resveratrol and 0.25% pterostilbene. […] The eggs were equally distributed in each incubator location to reduce possible allocation bias. Upon hatching (21 days), the hatchlings were euthanized by CO2 exposure, and the blood, liver, heart, pectoral muscle, small intestine and cecum were obtained.\nBlood was collected using micro-hematocrit heparin-coated capillary tubes (Fisher Scientific, Waltham, MA, USA). The hemoglobin (Hb) concentration was assessed spectrophotometrically using the QuantiChrom™ Hb Assay (DIHB-250, BioAssay Systems, Hayward, CA, USA) and according to specific instructions."}, "[2]": {"assay": "Glycogen in pectoral muscle", "settings": "intra-amniotic 1 mL/egg on day 17, at hatch, mean ± SEM, n=8", "description": "as §1"}, "[3]": {"test_system": "Liver Ferritin", "assay": "Liver ferritin", "settings": "intra-amniotic 1 mL/egg on day 17, at hatch, mean ± SEM, n=5", "description": "as §1"}, "[4]": {"test_system": "duodenal tissue (villi, crypts, goblet cells)", "assay": "Morphometric examination of duodenal tissue", "description": "as §1\nVillus epithelium analysis was conducted as previously published. The duodenal samples were soaked in buffered formaldehyde (4% (v/v)), dehydrated, cleared and embedded in paraffin. Numerous sections were cut with a thickness of 5 μm and put on slides. The sections were deparaffinized in xylene, after which they were rehydrated in a series of graded alcohol. Finally, the slides were stained with Alcian Blue-periodic acid-Schiff and investigated under a light microscopy. The variables were assessed (light microscope, EPIX XCAP software, standard version, Olympus, Waltham, MA, USA) for the following: villus length, villus diameter, depth of crypts, goblet cell diameter, crypt goblet cell number and villus goblet cells type number (acidic, neutral or mixed). Four segments for each biological sample and five biological samples per treatment group were examined. The goblet cells were enumerated at 10 villi/sample, and the means were calculated for statistical analysis."}, "[5]": {"test_system": "DMT1 (Divalent metal transporter 1)", "assay": "Gene expression (RT-PCR), DMT1", "settings": "at hatch, b173: compared with the other treatments and the controls, b190: comparator not stated, p<0.05", "description": "(§2) The pure resveratrol and pterostilbene were individually diluted in 18 MΩ H2O. The intra-amniotic administration followed the methodology previously described. On the 17th day of embryonic development, the eggs with viable embryos (n=60) were randomly allocated into 6 groups (n=10) with a similar weight frequency distribution. For the intra-amniotic treatment, 1 mL of solution per egg was injected into the amniotic fluid (via candling) with the aid of a 21-gauge needle. […]\n(§3) The RNA was isolated as described previously (RNeasy Mini Kit, Qiagen Inc., Valencia, CA, USA), and 30 mg of the duodenal tissue or liver tissue (n =8) was used to extract the total RNA. […] Finally, the RNA was eluted in 50 μL of RNase-free water and quantified by absorbance at 260 and 280 nm.\n(§4) RT-PCR was conducted as described. […] The cDNA content was assessed by absorbance at 260 and 280 nm, with an extinction coefficient of 33 (single-stranded DNA). Genomic DNA contamination was evaluated via a real-time RT-PCR assay for the reference gene samples [17,18,30]. […]\n(§5) The procedures were performed as previously published. […] The optimal MgCl2 concentration achieved, for each reaction, an amplification plot (lowest cycle product, Cp), the uppermost fluorescence intensity and the steepest amplification slope. […]"}, "[6]": {"test_system": "IL-1β", "assay": "Gene expression (RT-PCR), IL-1β", "settings": "at hatch; b175, b210: compared with the 5% inulin control group; b192: comparator not stated; p<0.05", "description": "as §2, §3, §4, §5"}, "[7]": {"test_system": "TNF-α", "assay": "Gene expression (RT-PCR), TNF-α", "settings": "at hatch; b175, b210: compared with the 5% inulin control group; b192: comparator not stated; p<0.05", "description": "as §2, §3, §4, §5"}, "[8]": {"test_system": "AT1R (angiotensin II receptor type I)", "assay": "Gene expression (RT-PCR), AT1R", "settings": "intestinal and heart gene expression (FIG. 2); b176: compared with the no injection control; b192: comparator not stated; b210: between the experimental groups", "description": "as §2, §3, §4, §5"}, "[9]": {"settings": "duodenum, intra-amniotic 1 mL/egg on day 17, at hatch, mean ± SEM, n=5"}, "[10]": {"settings": "small intestine, intra-amniotic 1 mL/egg on day 17, at hatch, mean ± SEM, n=5"}}, "note": "Marks after values point to notes of the source that are not given here.", "data": [{"compound": "Oc1ccc(C=Cc2cc(O)cc(O)c2)cc1", "note": "[5% Resveratrol, Resveratrol]", "values": [{"measurement": "Hb (g/dL)", "setting": "[1]; intra-amniotic 1 mL/egg on day 17, blood at hatch (day 21), mean ± SEM", "value": "9.71 ± 0.53^a g/dL"}, {"measurement": "Hb concentration, comparison between groups", "setting": "[1]; synergistic vs the controls and other treatment groups (p<0.05), 5% resveratrol and 5% pterostilbene vs the control groups", "value": "no difference"}, {"measurement": "Glycogen (mg/g)", "setting": "[2]", "value": "0.019 ± 0.004^a mg/g"}, {"measurement": "Liver Ferritin (A.U.)", "setting": "[3]", "value": "0.839 ± 0.393^bc A.U."}, {"measurement": "Depth of Crypts (μm)", "setting": "[4]; [9]", "value": "63.73 ± 1.20^a μm"}, {"measurement": "Mucus Layer Width (μm)", "setting": "[4]; [9]", "value": "4.80 ± 0.13^d μm"}, {"measurement": "Villus Diameter (μm)", "setting": "[4]; [9]", "value": "54.47 ± 0.70^b μm"}, {"measurement": "Villus Length (μm)", "setting": "[4]; [9]", "value": "294.92 ± 3.48^c μm"}, {"measurement": "Crypt Goblet Cell Number", "setting": "[4]; [10]", "value": "10.91 ± 0.21 ^b"}, {"measurement": "Goblet Cell Diameter (μM)", "setting": "[4]; [10]", "value": "7.94 ± 0.06 ^b μM"}, {"measurement": "Villus Goblet Cell Type Number, Acidic", "setting": "[4]; [10]", "value": "10.97 ± 0.23 ^a"}, {"measurement": "Villus Goblet Cell Type Number, Mixed", "setting": "[4]; [10]", "value": "0.17 ± 0.03 ^c"}, {"measurement": "Villus Goblet Cell Type Number, Neutral", "setting": "[4]; [10]", "value": "0.00 ± 0.00 ^b"}, {"measurement": "Duodenal villus diameter, comparison with controls", "setting": "[4]; versus the controls, p<0.05", "value": "significant increase"}, {"measurement": "Duodenal villus length, comparison with controls", "setting": "[4]; versus the controls, p<0.05", "value": "significant increase"}, {"measurement": "DMT1 relative gene expression", "setting": "[5]; listed as 5% resveratrol", "value": "lowest"}, {"measurement": "DMT1 relative gene expression", "setting": "[5]; listed as resveratrol", "value": "downregulated significantly"}, {"measurement": "IL-1β gene expression", "setting": "[6]", "value": "downregulated"}, {"measurement": "TNF-α gene expression", "setting": "[7]", "value": "downregulated"}, {"measurement": "AT1R gene expression", "setting": "[8]", "value": "downregulated"}]}]}
